Reference: publication PMC8126888 (RSC Medicinal Chemistry, 2020)
Read-outs that look alike come from different tables or passages of the source.

Tests used:
in vitro [1] = details: PAMPA
in vitro [2] = details: mouse, microsomes, pH 7.4, MLM CLint, mouse liver microsomes
[3] = test system: Trypanosoma cruzi, Tulahuen CL2, beta-galactosidase strain; assay: microbe, parasite or virus in culture; details: MRC5, read-out: T. cruzi Tulahuen C4 (LacZ) IC50
in vitro [4] = details: human, microsomes, pH 7.4, HLM CLint, human liver microsomes
in vitro [5] = details: human
physchem = details: HPLC, Ascentis Express RP Amide column, pH 7.4, eLogD
[6] = test system: Leishmania infantum MHOM/MA(BE)/67/ITMAP263 intracellular amastigotes; assay: microbe, parasite or virus in culture; details: Macrophage, in Mus musculus
[7] = test system: primary peritoneal mouse macrophages (PMM); details: PMM IC50 / L. infantum IC50
in vitro [8] = details: Swiss, mouse
[9] = read-out: L. Inf. pIC50, from L. infantum intracellular amastigote IC50 (converted)
[10] = read-out: L. infantum MHOM/MA(BE)/67/ITMAP263 intracellular amastigotes IC50

Structure (SMILES): COCCN(Cc1ccccc1)S(=O)(=O)c1ccccc1 [DNDI0003363821]
- Papp (in vitro [1]): 25.3 ×10⁻⁶ cm/s
- microsomal CLint at 0.5 μM (in vitro [2]): 2990 µL/min/mg
- IC50 [3]: 39.3 µM
- microsomal CLint at 0.5 μM (in vitro [4]): 239 µL/min/mg
- CC50 at 3 days (in vitro [5]): > 64 µM
- chromatographic logD (physchem): 3.5
- IC50 [6, 9]: 40.7 µM
- IC50 [6, 10]: 40.5 µM
- SI (vs PMM) [7]: 2
- IC50 (in vitro [8]): > 64 µM

Structure (SMILES): CC[C@H](Cc1ccccc1)[S+]([O-])c1ccccc1OC (stereo partly shown) [DNDI0003362001]
- Papp (in vitro [1]): 9.42 ×10⁻⁶ cm/s
- microsomal CLint at 0.5 μM (in vitro [2]): 3620 µL/min/mg
- IC50 [3]: 31.5 µM
- microsomal CLint at 0.5 μM (in vitro [4]): 390 µL/min/mg
- CC50 at 3 days (in vitro [5]): > 64 µM
- chromatographic logD (physchem): 3.7
- IC50 [6, 9]: 52.5 µM
- IC50 [6, 10]: 52.5 µM
- SI (vs PMM) [7]: 1
- IC50 (in vitro [8]): > 64 µM

Structure (SMILES): O=S(=O)(NCc1ccccc1)c1cc(F)ccc1F [DNDI0003365406]
- Papp (in vitro [1]): 30.4 ×10⁻⁶ cm/s
- microsomal CLint at 0.5 μM (in vitro [2]): 260 µL/min/mg
- IC50 [3]: > 64 µM
- microsomal CLint at 0.5 μM (in vitro [4]): 75 µL/min/mg
- CC50 at 3 days (in vitro [5]): > 64 µM
- chromatographic logD (physchem): 3.2
- IC50 [6, 9]: 49 µM
- IC50 [6, 10]: 49.4 µM
- SI (vs PMM) [7]: 1
- IC50 (in vitro [8]): > 64 µM

Structure (SMILES): CC[C@H](Cc1ccccc1)S(=O)(=O)c1ccccc1OC [DNDI0003362003]
- Papp (in vitro [1]): 19.8 ×10⁻⁶ cm/s
- microsomal CLint at 0.5 μM (in vitro [2]): 1060 µL/min/mg
- IC50 [3]: 31.7 µM
- microsomal CLint at 0.5 μM (in vitro [4]): 458 µL/min/mg
- CC50 at 3 days (in vitro [5]): > 64 µM
- chromatographic logD (physchem): 3.5
- IC50 [6, 9]: 34.7 µM
- IC50 [6, 10]: 34.6 µM
- SI (vs PMM) [7]: 2
- IC50 (in vitro [8]): > 64 µM

Structure (SMILES): CCC(Cc1ccccc1)Sc1nc(C)cc(C)c1C#N (stereo not shown) [DNDI0003297457]
- Papp (in vitro [1]): 0.19 ×10⁻⁶ cm/s
- microsomal CLint at 0.5 μM (in vitro [2]): 1900 µL/min/mg
- IC50 [3]: 6.9 µM
- microsomal CLint at 0.5 μM (in vitro [4]): 2010 µL/min/mg
- CC50 at 3 days (in vitro [5]): > 64 µM
- chromatographic logD (physchem): 5.4
- IC50 [6, 9]: 2.63 µM
- IC50 [6, 10]: 2.64 µM
- SI (vs PMM) [7]: 15
- IC50 (in vitro [8]): 40.3 µM

Structure (SMILES): CCN(Cc1ccccc1)S(=O)(=O)c1ccc(NC(C)=O)cc1 [DNDI0003364473]
- Papp (in vitro [1]): 13.6 ×10⁻⁶ cm/s
- microsomal CLint at 0.5 μM (in vitro [2]): 398 µL/min/mg
- IC50 [3]: 33.1 µM
- microsomal CLint at 0.5 μM (in vitro [4]): 205 µL/min/mg
- CC50 at 3 days (in vitro [5]): > 64 µM
- chromatographic logD (physchem): 3.5
- IC50 [6, 9]: > 64 µM
- IC50 [6, 10]: > 64 µM
- SI (vs PMM) [7]: 1
- IC50 (in vitro [8]): > 64 µM

Structure (SMILES): COc1ccc(Cl)cc1S(=O)(=O)N(Cc1ccccc1)OC [DNDI0003364476]
- Papp (in vitro [1]): 5.91 ×10⁻⁶ cm/s
- microsomal CLint at 0.5 μM (in vitro [2]): 1890 µL/min/mg
- IC50 [3]: 7.86 µM
- microsomal CLint at 0.5 μM (in vitro [4]): 265 µL/min/mg
- CC50 at 3 days (in vitro [5]): > 64 µM
- chromatographic logD (physchem): 4.3
- IC50 [6, 9]: 24.5 µM
- IC50 [6, 10]: 24.7 µM
- SI (vs PMM) [7]: 3
- IC50 (in vitro [8]): > 64 µM

Structure (SMILES): CCN(Cc1ccccc1)S(=O)(=O)c1cc(OC)ccc1OC [DNDI0003365407]
- Papp (in vitro [1]): 11.9 ×10⁻⁶ cm/s
- microsomal CLint at 0.5 μM (in vitro [2]): 3500 µL/min/mg
- IC50 [3]: 27.4 µM
- microsomal CLint at 0.5 μM (in vitro [4]): 534 µL/min/mg
- CC50 at 3 days (in vitro [5]): > 64 µM
- IC50 [6, 9]: 2.51 µM
- IC50 [6, 10]: 2.53 µM
- SI (vs PMM) [7]: 25
- IC50 (in vitro [8]): > 64 µM

Structure (SMILES): CCN(Cc1ccccc1)S(=O)(=O)c1ccccc1C#N [DNDI0002574585]
- Papp (in vitro [1]): 16.6 ×10⁻⁶ cm/s
- microsomal CLint at 0.5 μM (in vitro [2]): 1060 µL/min/mg
- IC50 [3]: 29.3 µM
- microsomal CLint at 0.5 μM (in vitro [4]): 306 µL/min/mg
- CC50 at 3 days (in vitro [5]): > 64 µM
- chromatographic logD (physchem): 3.5
- IC50 [6, 9]: 25.7 µM
- IC50 [6, 10]: 25.6 µM
- SI (vs PMM) [7]: 2
- IC50 (in vitro [8]): > 64 µM

Structure (SMILES): CCN(Cc1ccccc1)S(=O)(=O)c1ccc(OC)cc1 [DNDI0003297130]
- Papp (in vitro [1]): 7.68 ×10⁻⁶ cm/s
- microsomal CLint at 0.5 μM (in vitro [2]): 3010 µL/min/mg
- IC50 [3]: 18.5 µM
- microsomal CLint at 0.5 μM (in vitro [4]): 676 µL/min/mg
- CC50 at 3 days (in vitro [5]): > 64 µM
- chromatographic logD (physchem): 3.9
- IC50 [6, 9]: 11 µM
- IC50 [6, 10]: 11 µM
- SI (vs PMM) [7]: 6
- IC50 (in vitro [8]): > 64 µM

Structure (SMILES): CCC(Cc1ccccc1)[S+]([O-])c1nc(C)cc(C)c1C#N (stereo not shown) [DNDI0003297458]
- Papp (in vitro [1]): 13.4 ×10⁻⁶ cm/s
- microsomal CLint at 0.5 μM (in vitro [2]): 1560 µL/min/mg
- IC50 [3]: > 64 µM
- microsomal CLint at 0.5 μM (in vitro [4]): 1230 µL/min/mg
- CC50 at 3 days (in vitro [5]): > 64 µM
- chromatographic logD (physchem): 3.2
- IC50 [6, 9]: 47.9 µM
- IC50 [6, 10]: 47.6 µM
- SI (vs PMM) [7]: 1
- IC50 (in vitro [8]): > 64 µM

Structure (SMILES): CCN(Cc1ccccc1)S(=O)(=O)c1ccc(C)cc1 [DNDI0003297129]
- Papp (in vitro [1]): 5.38 ×10⁻⁶ cm/s
- IC50 [3]: 28.8 µM
- microsomal CLint at 0.5 μM (in vitro [4]): 1740 µL/min/mg
- CC50 at 3 days (in vitro [5]): > 64 µM
- chromatographic logD (physchem): 4.1
- IC50 [6, 9]: 49 µM
- IC50 [6, 10]: 49.4 µM
- SI (vs PMM) [7]: 1
- IC50 (in vitro [8]): > 64 µM

Structure (SMILES): COc1ccc(Cl)cc1S(=O)(=O)N(CCO)Cc1ccccc1 [DNDI0003366068]
- Papp (in vitro [1]): 20.1 ×10⁻⁶ cm/s
- IC50 [3]: 26.8 µM
- microsomal CLint at 0.5 μM (in vitro [4]): 180 µL/min/mg
- CC50 at 3 days (in vitro [5]): > 64 µM
- chromatographic logD (physchem): 3.5
- IC50 [6, 9]: 37.2 µM
- IC50 [6, 10]: 37.5 µM
- SI (vs PMM) [7]: 2
- IC50 (in vitro [8]): > 64 µM

Structure (SMILES): COc1ccc(OC)c(S(=O)(=O)NCc2ccccc2)c1 [DNDI0003365408]
- Papp (in vitro [1]): 16.8 ×10⁻⁶ cm/s
- microsomal CLint at 0.5 μM (in vitro [2]): 1250 µL/min/mg
- IC50 [3]: > 64 µM
- microsomal CLint at 0.5 μM (in vitro [4]): 126 µL/min/mg
- CC50 at 3 days (in vitro [5]): > 64 µM
- chromatographic logD (physchem): 2.8
- IC50 [6, 9]: > 64 µM
- IC50 [6, 10]: > 64 µM
- SI (vs PMM) [7]: 1
- IC50 (in vitro [8]): > 64 µM

Structure (SMILES): CCN(Cc1ccccc1)S(=O)(=O)c1ccccc1 [DNDI0003363563]
- Papp (in vitro [1]): 7.54 ×10⁻⁶ cm/s
- microsomal CLint at 0.5 μM (in vitro [2]): 1180 µL/min/mg
- IC50 [3]: 32.1 µM
- microsomal CLint at 0.5 μM (in vitro [4]): 418 µL/min/mg
- CC50 at 3 days (in vitro [5]): > 64 µM
- chromatographic logD (physchem): 3.8
- IC50 [6, 9]: > 64 µM
- IC50 [6, 10]: > 64 µM
- SI (vs PMM) [7]: 1
- IC50 (in vitro [8]): > 64 µM

Structure (SMILES): CCN(Cc1ccccc1)S(=O)(=O)c1cc(F)ccc1N1CCCC1 [DNDI0003364614]
- Papp (in vitro [1]): 0.34 ×10⁻⁶ cm/s
- microsomal CLint at 0.5 μM (in vitro [2]): 3000 µL/min/mg
- IC50 [3]: 7.33 µM
- microsomal CLint at 0.5 μM (in vitro [4]): 1470 µL/min/mg
- CC50 at 3 days (in vitro [5]): > 64 µM
- chromatographic logD (physchem): 4.9
- IC50 [6, 9]: 12.9 µM
- IC50 [6, 10]: 12.9 µM
- SI (vs PMM) [7]: 4
- IC50 (in vitro [8]): 50.8 µM

Structure (SMILES): O=S(=O)(NCc1ccccc1)c1ccccc1 [DNDI0003363562]
- Papp (in vitro [1]): 21.6 ×10⁻⁶ cm/s
- microsomal CLint at 0.5 μM (in vitro [2]): 161 µL/min/mg
- IC50 [3]: > 64 µM
- microsomal CLint at 0.5 μM (in vitro [4]): 50 µL/min/mg
- CC50 at 3 days (in vitro [5]): > 64 µM
- chromatographic logD (physchem): 2.9
- IC50 [6, 9]: > 64 µM
- IC50 [6, 10]: > 64 µM
- SI (vs PMM) [7]: 1
- IC50 (in vitro [8]): > 64 µM

Structure (SMILES): CCN(Cc1ccccc1)S(=O)(=O)c1ccccc1OC [DNDI0003363820]
- Papp (in vitro [1]): 18.5 ×10⁻⁶ cm/s
- microsomal CLint at 0.5 μM (in vitro [2]): 1370 µL/min/mg
- IC50 [3]: 30.1 µM
- microsomal CLint at 0.5 μM (in vitro [4]): 406 µL/min/mg
- CC50 at 3 days (in vitro [5]): 36.3 µM
- chromatographic logD (physchem): 3.6
- IC50 [6, 9]: 11 µM
- IC50 [6, 10]: 11 µM
- SI (vs PMM) [7]: 6
- IC50 (in vitro [8]): > 64 µM

Structure (SMILES): CCN(Cc1ccccc1)S(=O)(=O)c1cc(Cl)ccc1OC [DNDI0003364251]
- Papp (in vitro [1]): 3.74 ×10⁻⁶ cm/s
- microsomal CLint at 0.5 μM (in vitro [2]): 1260 µL/min/mg
- IC50 [3]: 9.1 µM
- microsomal CLint at 0.5 μM (in vitro [4]): 304 µL/min/mg
- CC50 at 3 days (in vitro [5]): 53.2 µM
- chromatographic logD (physchem): 4.3
- IC50 [6, 9]: 5.5 µM
- IC50 [6, 10]: 5.52 µM
- SI (vs PMM) [7]: 12
- IC50 (in vitro [8]): > 64 µM
